Reference: patent US20230285372A1, “Pharmaceutical use of (E)-3-arylheterocyclylprop-2-enoic acid derivatives” (MEDCURIUS INC., priority 2020, published 2023)
Structures can show the parent of a compound that is named as a salt. Where two headings read alike, the source gives them in different places.

Tests used:
HT-22 cells = test: Protective effect on HT-22 cell damage caused by L-glutamate monosodium salt; format: cell-based, mouse; settings: 15 mM L-glutamate; for viability at 0.078 µM / viability at 0.156 µM / viability at 0.625 µM / viability at 1.25 µM / viability at 2.5 µM / viability at 5 µM / viability at 10 µM / viability at 0.313 µM: Mus musculus, 24 hours; for protection of HT22 cells against L-glutamate monosodium salt damage, in words: comparison with positive control drug DMF
Method: (§1) Well-proliferated HT-22 cells, derived from mouse hippocampal neuronal cells in logarithmic growth phase, were selected, and they were counted after being subjected to trypsin digestion and dispersion. The cell density was adjusted with DMEM/F12 medium (containing 10% FBS and 1% double antibody). The cells were then inoculated in a 96-well plate at a density of 2,000 cells per well, and cultured in a cell incubator at 37° C. in atmosphere containing 5% CO2 for 24 hours. For the control group and the L-glutamate monosodium salt group (model group), serum-free DMEM/F12 medium was added, and the other wells were added with tested compounds of different concentrations; except that the serum-free DMEM/F12 medium was added to the control group. L-glutamate monosodium salt solution at the final concentration of 15 mM was added to the remaining wells. After 24 hours, the cell viability was detected with a luminescent cell viability assay kit.
as §1, with “group,” for “group.”
as §1, with “2.000” for “2,000”, “group,” for “group.”

SH-SY5Y cells = test: Protective effect on SH-SY5Y cell damage caused by oxygen-glucose deprivation/reperfusion; format: cell-based; settings: OGD 4 hours then 24 hours, CCK-8, model 56.83
Method: SH-SY5Y cells in logarithmic growth phase were selected, the culture medium was discarded, the cells were digested with 0.25% Trypsin containing EDTA, and cell suspension was made. Cell density was adjusted to 30,000/ml with DMEM/F12 medium (containing 10% FBS and 1% double antibody) and it was inoculated to 96-well plate, 100 μL/well, the number of cells per well was 3,000, and the cells were cultured in a cell incubator at 37° C. in an atmosphere containing 5% CO2 for 24 hours. After 24 hours, the cells were washed twice with the Earle's solution. For the control group, 100 μL oxygenated Earle's solution was added in each well, and for the remaining groups, 100 μL oxygen-free Earle's solution after nitrogen bubbling was added, and the oxygen content in an anoxic chamber was kept below 0.5%, and models were made in the cell incubator for 4 hours. […] After 24 hours, CCK-8 cell viability test kit was used to detect the cell viability.

[1] = HT-22, 24 h, Table 1, Conc 0.078 μm, L-Glu alone 27.73 (I-5 32.92), read-out: cell viability
[2] = HT-22, 24 h, Table 1, Conc 0.156 μm, L-Glu alone 27.73 (I-5 32.92), read-out: cell viability
[3] = HT-22, 24 h, Table 1, Conc 0.625 μm, L-Glu alone 27.73 (I-5 32.92), read-out: cell viability
[4] = HT-22, 24 h, Table 1, Conc 1.25 μm, L-Glu alone 27.73 (I-5 32.92), read-out: cell viability
[5] = HT-22, 24 h, Table 1, Conc 2.5 μm, L-Glu alone 27.73 (I-5 32.92), read-out: cell viability
[6] = HT-22, 24 h, Table 1, Conc 5 μm, L-Glu alone 27.73 (I-5 32.92), read-out: cell viability
[7] = HT-22, 24 h, Table 1, Conc 10 μm, L-Glu alone 27.73 (I-5 32.92), read-out: cell viability
[8] = HT-22, 24 h, Table 1, Conc 0.313 μm, L-Glu alone 27.73 (I-5 32.92), read-out: cell viability
[9] = HT-22, Table 2, Conc 0.156 μM, L-Glu alone 27.83, read-out: Visibility %
[10] = HT-22, Table 2, Conc 2.5 μM, L-Glu alone 27.83, read-out: Visibility %
[11] = HT-22, Table 2, Conc 10 μM, L-Glu alone 27.83, read-out: Visibility %
[12] = HT-22, Table 2, Conc 1.25 μM, L-Glu alone 27.83, read-out: Visibility %
[13] = HT-22, Table 2, Conc 0.078 μM, L-Glu alone 27.83, read-out: Visibility %
[14] = HT-22, Table 2, Conc 0.313 μM, L-Glu alone 27.83, read-out: Visibility %
[15] = HT-22, Table 2, Conc 0.625 μM, L-Glu alone 27.83, read-out: Visibility %
[16] = HT-22, Table 2, Conc 5 μM, L-Glu alone 27.83, read-out: Visibility %

SMILES | viability at 0.078 µM (HT-22 cells; [1]) [%] | viability at 0.156 µM (HT-22 cells; [2]) [%] | viability at 0.625 µM (HT-22 cells; [3]) [%] | viability at 1.25 µM (HT-22 cells; [4]) [%] | viability at 2.5 µM (HT-22 cells; [5]) [%] | viability at 5 µM (HT-22 cells; [6]) [%] | viability at 10 µM (HT-22 cells; [7]) [%] | also measured
COC(=O)/C=C/c1cccnc1 [Compound I-3] | 46.8 | 50.6 | 46.8 | 45.2 | 47.5 | 37.3 | 31.2 | –
CON(C)C(=O)/C=C/c1ccccn1 [Compound I-8] | – | 77.8 | 71.1 | 54.6 | 54.8 | 50.9 | 53 | protection of HT22 cells against L-glutamate monosodium salt damage, in words (HT-22 cells): better effects than the positive control drug DMF; viability at 0.313 µM (HT-22 cells; [8]): 70.6%
CN(C)C(=O)/C=C/c1ccncn1 [Compound I-20] | – | – | – | – | – | – | – | viability at 0.156 µM (HT-22 cells; [9]): 43.4%; viability at 2.5 µM (HT-22 cells; [10]): 57.1%; viability at 10 µM (HT-22 cells; [11]): 51.2%
COC(=O)/C=C/c1ncco1 [Compound I-27] | – | – | – | – | – | – | – | protection of HT22 cells against L-glutamate monosodium salt damage, in words (HT-22 cells): perform better than the positive control drug DMF
COC(=O)/C=C/c1ncc[nH]1 [Compound I-22] | – | – | – | – | – | – | – | viability at 1.25 µM (HT-22 cells; [12]): 40%; viability at 2.5 µM (HT-22 cells; [10]): 42.7%
CON(C)C(=O)/C=C/c1ccncn1 [Compound I-21] | – | – | – | – | – | – | – | viability at 2.5 µM (HT-22 cells; [10]): 60.3%; viability at 10 µM (HT-22 cells; [11]): 58.4%
CC1=NN(c2ccccc2)C(=O)C1 [Edaravone, reference compound] | – | – | – | – | – | – | – | Visibility % (SH-SY5Y cells; Conc 0.078 μM): 59.41%; Visibility % (SH-SY5Y cells; Conc 0.156 μM): 62.42%; Visibility % (SH-SY5Y cells; Conc 10 μM): 67.39%
CN(C)C(=O)/C=C/c1ncccn1 [Compound I-19] | – | – | – | – | – | – | – | viability at 0.078 µM (HT-22 cells; [13]): 47.1%; viability at 0.156 µM (HT-22 cells; [9]): 39.2%; viability at 0.313 µM (HT-22 cells; [14]): 37.5%
COC(=O)NC(=O)/C=C/c1cccnc1 [Compound I-16] | – | – | – | – | – | – | – | viability at 0.078 µM (HT-22 cells; [13]): 41.3%; viability at 0.625 µM (HT-22 cells; [15]): 34.2%; viability at 2.5 µM (HT-22 cells; [10]): 40.4%
Cc1coc(/C=C/C#N)n1 [Compound I-26] | – | – | – | – | – | – | – | protection of HT22 cells against L-glutamate monosodium salt damage, in words (HT-22 cells): perform far better than the positive control drug DMF
COC(=O)/C=C/c1nccn1C [Compound I-23] | – | – | – | – | – | – | – | protection of HT22 cells against L-glutamate monosodium salt damage, in words (HT-22 cells): equivalent to that of a positive control drug DMF; viability at 0.078 µM (HT-22 cells; [13]): 65.4%; viability at 0.313 µM (HT-22 cells; [14]): 38.3%; viability at 1.25 µM (HT-22 cells; [12]): 39%
N#C/C=C/c1ccncc1 [Compound I-7] | 48.8 | 48 | 40.6 | 55.5 | – | 32.2 | – | viability at 0.313 µM (HT-22 cells; [8]): 42.8%
COC(=O)/C=C/c1ccccn1 [Compound I-1] | 38.7 | 45.7 | 47.9 | 43.5 | – | 38.4 | 33.4 | –
CON(C)C(=O)/C=C/c1ccncc1 [Compound I-10] | 44.7 | 43 | 43.3 | 41.9 | 47.8 | 43.4 | 37.5 | viability at 0.313 µM (HT-22 cells; [8]): 43.7%
CN(C)C(=O)/C=C/c1ccncc1 [Compound I-13] | 52.4 | 58.8 | 64.9 | 61.6 | 59.7 | 51.5 | 51.6 | protection of HT22 cells against L-glutamate monosodium salt damage, in words (HT-22 cells): better effects than the positive control drug DMF
CN(C)C(=O)/C=C/c1ccccn1 [Compound I-11] | 42.4 | 42.2 | 44.2 | 43.6 | 46.5 | 35.4 | 40.3 | viability at 0.313 µM (HT-22 cells; [8]): 46.1%
COC(=O)NC(=O)/C=C/c1ccncc1 [Compound I-17] | – | – | – | – | – | – | – | viability at 0.156 µM (HT-22 cells; [9]): 48.3%; viability at 0.625 µM (HT-22 cells; [15]): 51.2%; viability at 5 µM (HT-22 cells; [16]): 33.6%; viability at 10 µM (HT-22 cells; [11]): 31.2%
Cc1csc(/C=C/C#N)n1 [Compound I-30] | – | – | – | – | – | – | – | protection of HT22 cells against L-glutamate monosodium salt damage, in words (HT-22 cells): perform better than the positive control drug DMF
CN(C)C(=O)/C=C/c1nccn1C [Compound I-24] | – | – | – | – | – | – | – | viability at 0.156 µM (HT-22 cells; [9]): 39.6%; viability at 0.313 µM (HT-22 cells; [14]): 38%; viability at 2.5 µM (HT-22 cells; [10]): 35.7%
N#C/C=C/c1ccccn1 [I-5 HCl] | – | – | – | – | – | – | – | Visibility % (SH-SY5Y cells; Conc 0.078 μM): 67.72%; Visibility % (SH-SY5Y cells; Conc 0.156 μM): 67.82%; Visibility % (SH-SY5Y cells; Conc 0.313 μM): 69.35%; Visibility % (SH-SY5Y cells; Conc 0.625 μM): 74.72%
COC(=O)/C=C/c1nc(C)cs1 [Compound I-28] | – | – | – | – | – | – | – | protection of HT22 cells against L-glutamate monosodium salt damage, in words (HT-22 cells): perform far better than the positive control drug DMF
CON(C)C(=O)/C=C/c1cccnc1 [Compound I-9] | 35.5 | 35.8 | 45.8 | 41.6 | 40.1 | 43.4 | 40.1 | viability at 0.313 µM (HT-22 cells; [8]): 40.8%
COC(=O)/C=C/c1ccncc1 [Compound I-4] | 45.1 | 44.1 | 42.3 | 41.3 | 40.5 | 40.2 | 37.6 | viability at 0.313 µM (HT-22 cells; [8]): 42.7%
COC(=O)NC(=O)/C=C/c1ccccn1 [Compound I-15] | – | – | – | – | – | – | – | viability at 2.5 µM (HT-22 cells; [10]): 43.1%; viability at 10 µM (HT-22 cells; [11]): 34.1%
COC(=O)/C=C/c1ncccn1 [Compound I-18] | – | – | – | – | – | – | – | viability at 5 µM (HT-22 cells; [16]): 40.9%
N#C/C=C/c1cccnc1 [Compound I-6] | 40.1 | 43.3 | – | 40.9 | 43 | 40.1 | 42.6 | viability at 0.313 µM (HT-22 cells; [8]): 42.9%
CN(C)C(=O)/C=C/c1cccnc1 [Compound I-12] | 48.9 | – | 49.5 | 45.6 | 44.2 | 39.3 | 44.3 | viability at 0.313 µM (HT-22 cells; [8]): 50.8%
